This is an account of results in patent US8796256B2 (Janssen Pharmaceutica NV, priority 2010, dated 2014).

The assay concerns the target T1, ERR1 (also known as ERR-α or ERR-1) (Homo sapiens, UniProt P11474).
T1 sequence (P11474 193-421 limits assumed): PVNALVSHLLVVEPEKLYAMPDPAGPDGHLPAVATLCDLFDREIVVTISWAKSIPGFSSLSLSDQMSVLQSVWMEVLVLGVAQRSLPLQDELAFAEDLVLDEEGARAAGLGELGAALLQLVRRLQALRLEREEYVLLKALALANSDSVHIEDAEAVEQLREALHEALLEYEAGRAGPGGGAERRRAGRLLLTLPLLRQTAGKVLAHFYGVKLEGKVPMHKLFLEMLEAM
The experiment in a line: TR-FRET assay (disruption of co-activator peptide binding to ERR1 LBD). In kind it is biochemical. The note with it: 6 nM 6His-ERR1LBD, 6 nM GST-SRC-2 peptide; average of 3 independent experiments. An outline of the steps:
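Homogeneous TR-FRET measuring displacement of GST-hSRC2 co-activator peptide (6 nM) from His-tagged ERR1 LBD (6 nM), detected with α-GST Eu cryptate (30 nM) and α-His-XL665 (7.5 nM). Buffer 25 mM Tris pH 8, 2.5 mM Hepes, 20 mM KCl, 1 mM DTT, 0.05 mg/mL delipidated BSA; equilibration 4-18 h at 25° C. Hyperbolic dose-response fit, mean of 3 experiments.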
In turn, `O=C(O)C(Cc1ccccn1)N1C(=O)S/C(=C\c2ccc3c(cnn3Cc3ccc(Cl)cc3C(F)(F)F)c2)C1=O` (stereo not drawn) [Compound 216, 2-[(5Z)-5-({1-[4-Chloro-2-(trifluoromethyl)benzyl]-1H-indazol-5-yl}methylidene)-2,4-dioxo-1,3-thiazolidin-3-yl]-3-pyridin-2-ylpropanoic acid] registered an EC50 of 33 nM.
For the compound `CN(C)CCN1C(=O)S/C(=C\c2ccc3c(cnn3Cc3ccc(C(F)(F)F)cc3C(F)(F)F)c2)C1=O` [Compound 7, (5Z)-5-[(1-{[2,4-Bis(trifluoromethyl)-phenyl]methyl}-1 H-indazol-5-yl)methylidene]-3-[2-(dimethylamino)-ethyl]-1,3-thiazolidine-2,4-dione], the 50% effective concentration (EC50) is 33 nM.
The compound `O=C1S/C(=C\c2ccc3c(cnn3Cc3ccc(Cl)cc3C(F)(F)F)c2)C(=O)N1CCNS(=O)(=O)N1CCOCC1` [Compound 398, N-{2-[(5Z)-5-({1-[4-Chloro-2-(trifluoromethyl)benzyl]-1H-indazol-5-yl}methylidene)-2,4-dioxo-1,3-thiazolidin-3-yl]ethyl}morpholine-4-sulfonamide] returned an EC50 of 10 nM.
The compound `O=C1S/C(=C\c2ccc3c(cnn3Cc3ccc(Cl)cc3C(F)(F)F)c2)C(=O)N1C[C@@H]1C[C@@H](O)CN1` [Compound 182, (5Z)-5-({1-[4-Chloro-2-(trifluoromethyl)benzyl]-1H-indazol-5-yl}methylidene)-3-{[(2S,4R)-4-hydroxypyrrolidin-2-yl]methyl}-1,3-thiazolidine-2,4-dione] yielded a 50% effective concentration (EC50) of 96 nM.
`O=C1S/C(=C\c2ccc3c(cnn3Cc3ccc(Cl)cc3C(F)(F)F)c2)C(=O)N1CCNC(=O)C(F)(F)F` [Compound 390, N-{2-[(5Z)-5-({1-[4-Chloro-2-(trifluoromethyl)benzyl]-1H-indazol-5-yl}methylidene)-2,4-dioxo-1,3-thiazolidin-3-yl]ethyl}-2,2,2-trifluoroacetamide] registered an EC50 of 64 nM.
With `NC1(CCN2C(=O)S/C(=C\c3ccc4c(cnn4Cc4ccc(Cl)cc4C(F)(F)F)c3)C2=O)CCOCC1` [Compound 312, (5Z)-3-[2-(4-Aminotetrahydro-2H-pyran-4-yl)ethyl]-5-({1-[4-chloro-2-(trifluoromethyl)benzyl]-1H-indazol-5-yl}methylidene)-1,3-thiazolidine-2,4-dione], the EC50 was 65 nM.
`NCCN1C(=O)S/C(=C\c2ccc3c(cnn3Cc3ccc(Cl)cc3C(F)(F)F)c2)C1=O` [Compound 49, 3-(2-Aminoethyl)-(5Z)-5-({1-[4-chloro-2-(trifluoromethyl)benzyl]-1H-indazol-5-yl}methylidene)-1,3-thiazolidine-2,4-dione] had an EC50 of 25 nM.
`CC(C)N1CC[C@@H](N2C(=O)S/C(=C\c3ccc4c(cnn4Cc4ccc(C(F)(F)F)cc4C(F)(F)F)c3)C2=O)[C@H](F)C1` (relative stereo) [Compound 331, (5Z)-5-({1-[2,4-Bis(trifluoromethyl)benzyl]-1H-indazol-5-yl}methylidene)-3-[trans-3-fluoro-1-(1-methylethyl)piperidin-4-yl]-1,3-thiazolidine-2,4-dione] displayed an EC50 of 238 nM.
The figure for `O=C1S/C(=C\c2ccc3c(cnn3Cc3ccc(Cl)cc3C(F)(F)F)c2)C(=O)N1C1CCCNCC1` (stereo not drawn) [Compound 77, (5Z)-3-Azepan-4-yl-5-({1-[4-chloro-2-(trifluoromethyl)benzyl]-1H-indazol-5-yl}methylidene)-1,3-thiazolidine-2,4-dione] is 28 nM; for `O=C1S/C(=C\c2ccc3c(cnn3Cc3ccc(Cl)cc3C(F)(F)F)c2)C(=O)N1CC1(F)CCNCC1` [Compound 303, (5Z)-5-({1-[4-Chloro-2-(trifluoromethyl)benzyl]-1H-indazol-5-yl}methylidene)-3-[(4-fluoropiperidin-4-yl)methyl]-1,3-thiazolidine-2,4-dione] it is 26 nM; for `O=C1S/C(=C\c2ccc3c(cnn3Cc3ccc(Cl)cc3C(F)(F)F)c2)C(=O)N1Cc1c[nH]cn1` [Compound 405, (5Z)-5-({1-[4-Chloro-2-(trifluoromethyl)benzyl]-1H-indazol-5-yl}methylidene)-3-(1H-imidazol-4-ylmethyl)-1,3-thiazolidine-2,4-dione] it is 48 nM.
`O=C1S/C(=C\c2ccc3c(cnn3Cc3ccc(Cl)cc3C(F)(F)F)c2)C(=O)N1Cc1c[nH]nn1` [Compound 85, (5Z)-5-({1-[4-Chloro-2-(trifluoromethyl)benzyl]-1H-indazol-5-yl}methylidene)-3-(1H-1,2,3-triazol-4-ylmethyl)-1,3-thiazolidine-2,4-dione]: the EC50 is 136 nM.
In turn, `CN1CCC(N2C(=O)S/C(=C\c3ccc4c(cnn4Cc4ccc(Cl)cc4C(F)(F)F)c3)C2=O)C(=O)C1` (stereo not drawn) [Compound 342, (5Z)-5-({1-[4-Chloro-2-(trifluoromethyl)benzyl]-1H-indazol-5-yl}methylidene)-3-(1-methyl-3-oxopiperidin-4-yl)-1,3-thiazolidine-2,4-dione] returned an EC50 of 65 nM.
Consider `O=C1S/C(=C\c2ccc3c(cnn3Cc3ccc(Cl)cc3C(F)(F)F)c2)C(=O)N1C[C@@H]1CCCN1CCO` [Compound 153, (5Z)-5-({1-[4-Chloro-2-(trifluoromethyl)benzyl]-1H-indazol-5-yl}methylidene)-3-{[(2S)-1-(2-hydroxyethyl)pyrrolidin-2-yl]methyl}-1,3-thiazolidine-2,4-dione], for which a half-maximal response (EC50) required 17 nM.
The figure for `C[C@@H](N)CN1C(=O)S/C(=C\c2ccc3c(cnn3Cc3ccc(C(F)(F)F)cc3C(F)(F)F)c2)C1=O` [Compound 80, (5Z)-3-[(2R)-2-Aminopropyl]-5-({1-[2,4-bis(trifluoromethyl)benzyl]-1H-indazol-5-yl}methylidene)-1,3-thiazolidine-2,4-dione] is 41 nM; for `O=C1S/C(=C\c2ccc3c(cnn3Cc3ccc(Cl)cc3C(F)(F)F)c2)C(=O)N1[C@H]1CCNC[C@H]1F` (relative stereo) [Compound 201, (5Z)-5-({1-[4-Chloro-2-(trifluoromethyl)benzyl]-1H-indazol-5-yl}methylidene)-3-(cis-3-fluoropiperidin-4-yl)-1,3-thiazolidine-2,4-dione] it is 61 nM.
`CC(=O)NS(=O)(=O)CN1C(=O)S/C(=C\c2ccc3c(cnn3Cc3ccc(C(F)(F)F)cc3C(F)(F)F)c2)C1=O` [Compound 71, N-({[(5Z)-5-({1-[2,4-Bis(trifluoromethyl)benzyl]-1H-indazol-5-yl}methylidene)-2,4-dioxo-1,3-thiazolidin-3-yl]methyl}sulfonyl)acetamide] registered an EC50 of 87 nM.
Compound `COc1ccc(Cn2ncc3cc(/C=C4\SC(=O)N(CCN5C[C@@H](C)O[C@@H](C)C5)C4=O)ccc32)c(C(F)(F)F)c1` [Compound 21, (5Z)-3-{2-[cis-2,6-Dimethylmorpholin-4-yl]ethyl}-5-({1-[4-methoxy-2-(trifluoromethyl)benzyl]-1H-indazol-5-yl)methylidene)-1,3-thiazolidine-2,4-dione] showed an EC50 of 9 nM.
The figure for `NC(=O)CN1CCC[C@H]1CN1C(=O)S/C(=C\c2ccc3c(cnn3Cc3ccc(Cl)cc3C(F)(F)F)c2)C1=O` [Compound 297, 2-[(2S)-2-{[(5Z)-5-({1-[4-Chloro-2-(trifluoromethyl)benzyl]-1H-indazol-5-yl}methylidene)-2,4-dioxo-1,3-thiazolidin-3-yl]methyl}pyrrolidin-1-yl]acetamide] is 76 nM.
`CN1C[C@@H](N2C(=O)S/C(=C\c3ccc4c(cnn4Cc4ccc(Cl)cc4C(F)(F)F)c3)C2=O)[C@@H](F)C1` (relative stereo) [Compound 323, (5Z)-5-({1-[4-Chloro-2-(trifluoromethyl)benzyl]-1H-indazol-5-yl}methylidene)-3-[cis-4-fluoro-1-methylpyrrolidin-3-yl]-1,3-thiazolidine-2,4-dione]: the response was half-maximal at 54 nM (EC50).
Compound `CN(C)C[C@H](O)CN1C(=O)S/C(=C\c2ccc3c(cnn3Cc3ccc(Cl)cc3C(F)(F)F)c2)C1=O` [Compound 293, (5Z)-5-({1-[4-Chloro-2-(trifluoromethyl)benzyl]-1H-indazol-5-yl}methylidene)-3-[(2S)-3-(dimethylamino)-2-hydroxypropyl]-1,3-thiazolidine-2,4-dione] displayed an EC50 of 35 nM.
`O=C1S/C(=C\c2ccc3c(cnn3Cc3ccc(Cl)cc3C(F)(F)F)c2)C(=O)N1CCN1C[C@@H]2C[C@H]1CN2` [Compound 78, (5Z)-5-({1-[4-Chloro-2-(trifluoromethyl)benzyl]-1H-indazol-5-yl}methylidene)-3-[2-(1S,4S)-(2,5-diazabicyclo[2.2.1]hept-2-yl)ethyl]-1,3-thiazolidine-2,4-dione] came in with an EC50 of 41 nM.
Compound `O=C1S/C(=C\c2ccc3c(cnn3Cc3ccc(Cl)cc3C(F)(F)F)c2)C(=O)N1[C@@H]1CCNC[C@H]1F` (relative stereo) [Compound 273, (5Z)-5-({1-[4-Chloro-2-(trifluoromethyl)benzyl]-1H-indazol-5-yl}methylidene)-3-(trans-3-fluoropiperidin-4-yl)-1,3-thiazolidine-2,4-dione] registered an EC50 of 34 nM.
Then `COc1ccc(Cn2ncc3cc(/C=C4\SC(=O)N(C5CCC(C(=O)NS(C)(=O)=O)CC5)C4=O)ccc32)c(C(F)(F)F)c1` (stereo not drawn) [Compound 24, 4-[(5Z)-5-({1-[4-Methoxy-2-(trifluoromethyl)benzyl]-1H-indazol-5-yl}methylidene)-2,4-dioxo-1,3-thiazolidin-3-yl]-N-(methylsulfonyl) cyclohexanecarboxamide], with 12 nM.
